≈ marks a conversion by molar mass, not a printed value.
Legend:
Assay in all cases: MIC determination
Type in all cases: cell-based
[1] = tested on: P. aeruginosa ATCC 27853; conditions: Pseudomonas aeruginosa, ATCC27853; P. aeruginosa ATCC 27853; read-out: MIC
[2] = tested on: S. pneumoniae UNT-038, MP-626, TP 160 (mefA); conditions: Streptococcus pneumoniae
[3] = tested on: S. aureus UNT-120, MP-619, NRS22 (USA 600, GISA); conditions: Staphylococcus aureus; S. aureus UNT-120, MP-619, NRS22 (USA 600, GISA); read-out: MIC
[4] = tested on: S. pneumoniae ATCC 49619; conditions: Streptococcus pneumoniae, ATCC49619; S. pneumoniae ATCC 49619; read-out: MIC
[5] = tested on: S. aureus UNT96, NRS710, MP-618 (USA 100, Erythro >8); conditions: Staphylococcus aureus; S. aureus UNT96, NRS710, MP-618 (USA 100, Erythro >8); read-out: MIC
[6] = tested on: K. pneumoniae IHMA 658692; KPC-2; conditions: Klebsiella pneumoniae; K. pneumoniae IHMA 658692; KPC-2; read-out: MIC
[7] = tested on: S. aureus BAA-1556 (USA 300); conditions: Staphylococcus aureus; S. aureus BAA-1556 (USA 300); read-out: MIC
[8] = tested on: E. coli ATCC 25922; conditions: Escherichia coli, ATCC25922, E. coli ATCC 25922; read-out: MIC
[9] = tested on: S. pneumoniae TP 1579 (ermB + tet(M, O)); conditions: Streptococcus pneumoniae
[10] = tested on: S. pyogenes ATCC 19615; conditions: Streptococcus pyogenes, ATCC19615; S. pyogenes ATCC 19615; read-out: MIC
[11] = tested on: S. pyogenes UNT-014, MP-625 MacRes; conditions: Streptococcus pyogenes; S. pyogenes UNT-014, MP-625 MacRes; read-out: MIC
[12] = tested on: E. faecalis ATCC 29212; conditions: Enterococcus faecalis, ATCC29212, read-out: MIC
[13] = tested on: E. faecalis UNT-047 VRE; conditions: Enterococcus faecalis; E. faecalis UNT-047 VRE; read-out: MIC
[14] = tested on: H. influenzae ATCC 49247; conditions: Haemophilus influenzae, ATCC49247; H. influenzae ATCC 49247; read-out: MIC
[15] = tested on: E. coli GUEST131 (NDM-1); conditions: Escherichia coli
[16] = tested on: S. aureus UNT-146, MP-620, TP 506 (ermA); conditions: Staphylococcus aureus; S. aureus UNT-146, MP-620, TP 506 (ermA); read-out: MIC
[17] = tested on: S. pneumoniae TP 1537 (ermB + mefA); conditions: Streptococcus pneumoniae; S. pneumoniae TP 1537 (ermB + mefA); read-out: MIC
[18] = tested on: S. aureus ATCC 29213; conditions: Staphylococcus aureus, ATCC29213, S. aureus ATCC 29213; read-out: MIC
[19] = tested on: S. pneumoniae UNT-039, MP-627, TP1517 (mefA); conditions: Streptococcus pneumoniae
[20] = tested on: K. pneumoniae ATCC 10031; conditions: Klebsiella pneumoniae, ATCC10031; K. pneumoniae ATCC 10031; read-out: MIC

CSC1O[C@H]([C@H](NC(=O)[C@H]2NC[C@@H]3C=CCO[C@@H]23)[C@H](C)Cl)C(O)[C@@H](O)[C@H]1O (stereo partly drawn) [FSA-24039]
MIC [1]: > 32 µg/mL
MIC [2]: 0.125 µg/mL (≈ 0.296 µM)
MIC [3]: > 32 µg/mL
MIC [4]: 0.0625 µg/mL (≈ 0.148 µM)
MIC [5]: > 32 µg/mL
MIC [6]: > 32 µg/mL
MIC [7]: > 32 µg/mL
MIC [8]: > 32 µg/mL
MIC [9]: 0.0625 µg/mL (≈ 0.148 µM)
MIC [10]: 0.125 µg/mL (≈ 0.296 µM)
MIC [11]: 0.125 µg/mL (≈ 0.296 µM)
MIC [12]: 32 µg/mL (≈ 75.7 µM)
MIC [13]: > 32 µg/mL
MIC [14]: 32 µg/mL (≈ 75.7 µM)
MIC [15]: > 32 µg/mL
MIC [16]: > 32 µg/mL
MIC [17]: > 32 µg/mL
MIC [18]: 1 µg/mL (≈ 2.36 µM)
MIC [19]: ≤ 0.0313 µg/mL
MIC [20]: > 32 µg/mL

CSC1O[C@H]([C@H](NC(=O)[C@@H]2[C@@H]3OCCCC[C@H]3CN2C)[C@H](C)Cl)C(O)C(O)[C@H]1O (stereo partly drawn) [FSA-24040]
MIC [1]: > 32 µg/mL
MIC [2]: ≤ 0.0313 µg/mL
MIC [3]: > 32 µg/mL
MIC [4]: ≤ 0.0313 µg/mL
MIC [5]: > 32 µg/mL
MIC [6]: > 32 µg/mL
MIC [7]: > 32 µg/mL
MIC [8]: > 32 µg/mL
MIC [9]: ≤ 0.0313 µg/mL
MIC [10]: ≤ 0.0313 µg/mL
MIC [11]: ≤ 0.0313 µg/mL
MIC [12]: 32 µg/mL (≈ 70.6 µM)
MIC [13]: > 32 µg/mL
MIC [14]: 8 µg/mL (≈ 17.7 µM)
MIC [15]: > 32 µg/mL
MIC [16]: > 32 µg/mL
MIC [17]: > 32 µg/mL
MIC [18]: ≤ 0.0313 µg/mL
MIC [19]: ≤ 0.0313 µg/mL
MIC [20]: 8 µg/mL (≈ 17.7 µM)

CSC1O[C@H]([C@H](NC(=O)[C@H]2NC[C@@H]3CCCCO[C@H]32)[C@H](C)Cl)C(O)[C@@H](O)[C@H]1O (stereo partly drawn) [FSA-22091]
MIC [1]: > 32 µg/mL
MIC [2]: < 0.0313 µg/mL
MIC [3]: > 32 µg/mL
MIC [4]: < 0.0313 µg/mL
MIC [5]: > 32 µg/mL
MIC [6]: > 32 µg/mL
MIC [7]: > 32 µg/mL
MIC [8]: 32 µg/mL (≈ 72.9 µM)
MIC [9]: < 0.0313 µg/mL
MIC [10]: < 0.0313 µg/mL
MIC [11]: < 0.0313 µg/mL
MIC [12]: > 32 µg/mL
MIC [13]: > 32 µg/mL
MIC [14]: 8 µg/mL (≈ 18.2 µM)
MIC [15]: > 32 µg/mL
MIC [16]: > 32 µg/mL
MIC [17]: 32 µg/mL
MIC [18]: 0.125 µg/mL (≈ 0.285 µM)
MIC [19]: < 0.0313 µg/mL
MIC [20]: 8 µg/mL (≈ 18.2 µM)
